Among the data in the NIST ThermoML archive (doi:10.1021/je049576k) are mass density and viscosity values, retold here.

The conditions of this data set: 101.33 kPa, Liquid.

SMILES strings stand for the structures. Numbers after ± are expanded uncertainties.

As for `C1COCO1` [1,3-dioxolane], under “298.15 K”, the mass density was 1058.62 ± 0.58 kg/m3 and the viscosity came out at 0.5886 ± 0.0084 mPa·s. Further, under “313.15 K”, the mass density is on record as 1039.97 ± 0.56 kg/m3 and the viscosity is given as 0.4985 ± 0.0074 mPa·s.
Regarding `CCC(C)O` (configuration not stated) [butan-2-ol], where the note is “298.15 K”, the mass density is reported as 802.2 ± 0.6 kg/m3 and the viscosity was 3.043 ± 0.037 mPa·s. For the setting “313.15 K”, the mass density is on record as 789.59 ± 0.61 kg/m3 and the viscosity is listed as 1.791 ± 0.023 mPa·s.
For `CCCCCC` [hexane], for the setting “298.15 K”, the mass density is reported as 655.07 ± 0.75 kg/m3 and the viscosity was 0.2951 ± 0.005 mPa·s. Also, where the note is “313.15 K”, the mass density is 641.27 ± 0.77 kg/m3 and the viscosity is recorded as 0.2552 ± 0.0045 mPa·s.
